In US8148355B2, “Phophylactic and therapeutic use of hydroxysteroids” (Hunter-Fleming Limited, priority 2001, dated 2012):
“And” between values parts separate entries of the source, which are not always exact repeats. Equal values may be shown once.

What was measured:
[1] = tested on: Organotypic hippocampal slice cultures (CA1 cell layer); assay: Hypoxic neuronal damage in organotypic hippocampal slice cultures (PI fluorescence in CA1); type: cell-based, Wistar rat; details: for effect on hypoxic damage in CA1 (in words): pre-
Protocol: Protocol For Studying Hypoxic Neuronal Damage
Organotypic hippocampal slice cultures were prepared using the basic method of Pringle et al (1996, 1997) modified as follows:
Wistar rat pups (8-11 days old) were decapitated and the hippocampus rapidly dissected into ice-cold Gey's balanced salt solution supplemented with 4.5 mg/ml glucose. Slices were separated and plated onto Millicell CM culture inserts (4 per well) and maintained at 37° C./5% CO2 for 14 days. Maintenance medium consisted of 25% heat-inactivated horse serum, 25% Hank's balanced salt solution (HBSS) and 50% minimum essential medium with added Earle's salts (MEM) supplemented with 1 mM glutamine and 4.5 mg/ml glucose. Medium was changed every 3-4 days.
Experimental hypoxia was performed as described previously (Pringle et al., 1996; 1997). Briefly, cultures were transferred to serum free medium (SFM-75% MEM, 25% HBSS supplemented with 1 mM glutamine and 4.5 mg/ml glucose) containing 5 μg/ml of the fluorescent exclusion dye propidium iodide (PI). Cultures were allowed to equilibrate in SFM for 60 minutes prior to imaging. PI fluorescence was detected using a Leica inverted microscope fitted with a rhodamine filter set. Any cultures in which PI fluorescence was detected at this stage were excluded from further study. Hypoxia was induced by transferring cultures to SFM (+PI) which had been saturated with 95% N2/5% CO2. Culture plates (without lids) were then sealed into an airtight chamber in which the atmosphere was saturated with 95% N2/5% CO2 by continuously blowing through gas at 10 liters/minute for ten minutes before being sealed and placed in the incubator for 170 minutes (total time of hypoxia was therefore 180 minutes). At the end of the hypoxic period cultures were returned to normoxic SFM containing PI and placed back in the incubator for 24 hours.
Neuronal damage was assessed as described previously (Pringle et al., 1996; 1997) using either NIH Image 1.60 running on an Apple IIsi computer or OpenLab 2.1 (Improvision) running on a Macintosh G4/400. Images were captured using a monochrome camera and saved onto optical disk for offline analysis. Light transmission images were captured prior to the addition of drugs, and PI fluorescence images recorded at the end of the 24-hour post-hypoxia recovery period. The area of the CA1 cell layer was determined from the transmission image. The area of PI fluorescence in CA1 was measured using the density slice function within NIH Image or OpenLab, and neuronal damage expressed as the percentage of the CA1 in which PI fluorescence was detected above background.
Steroid compounds were prepared by making an initial 1 mg/ml solution in ethanol and further diluting down in SFM. Compounds were added to the cultures for 45 minutes prior to hypoxia, during the hypoxic episode and during the post-hypoxic recovery period. Control experiments consisted of cultures treated with vehicle alone.

[2] = tested on: Langendorf perfused male rat hearts; assay: Cardioprotective effect in Langendorf perfused rat hearts (regional ischaemia/reperfusion, infarct size); set-up: species or system Wistar rats; details: 100 nM in perfusate, 30 min regional ischaemia, 120 min reperfusion
Protocol: The study was designed to test the potential anti-ischaemic and cardioprotective effect of 7β-OH EPIA in Langendorf perfused male rat hearts. The end point for evaluation of protection in this model is infarct size (protection against lethal injury, cell death). The infarct size model used is based on a standardised ischaemic insult followed by reperfusion. In the current study, treatment was added ex vivo (to the perfusion solution of the isolated heart) for 30 minutes prior to infarction and continued through 30 minutes regional ischaemia (infarction) and 120 minutes of reperfusion. Based on results from pilot studies, a concentration of 100 nM was used and compared to vehicle treated hearts. The drug was dissolved in DMSO (vehicle) and the final concentration of DMSO in the perfusion solution was 1:10^−6.
Animals were housed in the animal department of the University of Tromsø and treated according to the guidelines formulated by the European Convention for the protection of vertebrate animals used for experimental or other purposes. Supply of Wistar rats were from Harland (The Netherlands), and the rats stayed in the animal department for one week before experiments were started. Animal weight was restricted to 240-380 g, and only male hearts were used. This corresponds to age 60-120 days. […]
The perfusion pressure was 100 mm H2O. […] Heart rate was calculated from pressure recordings. […]

[3] = tested on: hippocampal CA1 pyramidal cells; assay: Global cerebral ischaemia in rats, 4 vessel occlusion (intact CA1 neurons, Nissl staining); type: in vivo, male Wistar rats
Protocol: Cerebral ischaemia was induced by four-vessel-occlusion (4VO) in male Wistar rats (250-280 g). Both vertebral arteries were occluded by electrocauterization in pentobarbital anaesthesia (60 mg/kg i.p.). The animals were allowed to recover for 24 hours with free access to water but not food. The next day the carotid arteries were exposed under 2% halothane in 30% oxygen/70% nitrous oxide anaesthesia and were occluded for 10 minutes using microvascular clamps. Subsequently, both clamps were removed and both arteries were inspected for immediate reperfusion. During the operation and the following 3 hours normothermia of the animals (37.5±0.5° C.) was maintained by using a thermostatically controlled heating blanket connected to a rectal thermometer. For control, in sham-operated animals both vertebral arteries were cauterised in pentobarbital anaesthesia and both common carotid arteries were exposed but not clamped under 2% halothane in 30% oxygen/70% nitrous oxide anaesthesia the following day. The wound was treated with lidocaine gel and then sutured. The animals were kept under a heating lamp at 30° C. environmental temperature until they regained consciousness.
Seven groups of animals were investigated: • 1. (n=8) steroid compound, 7β-OH EPIA (0.1 mg/kg, i.v. via tail vein, three injections: 15 minutes prior to the induction of ischaemia, during ischaemia and 5 minutes after reperfusion); • 2. (n=8) steroid compound, 7β-OH EPIA (0.3 mg/kg, i.v. three injections as described in 1.); • 3. (n=8) steroid compound, 7β-OH EPIA (1 mg/kg, i.v., three injections as described in 1.); • 4. (n=8) NBQX (disodium salt, because more water soluble) as reference substance and positive control (TOCRIS, Germany, 30 mg/kg, i.p., three injections as described in 1.); • 5. (n=8) received vehicle (0.9% NaCl, containing 100 μl Ethanol) three injections as described in 1.); • 6. (n=8) ischaemia alone; • 7. (n=8) sham operated controls.
The substances were dissolved in 100 μl ethanol and finally diluted with 0.9% NaCl.
After a survival time of 7 days after ischaemia, all animals were perfusion fixed tanscardially with 4% paraformaldehyde. The brains were then removed carefully and postfixed in the same fixative for 2 hours. After cryoprotection in 30% sucrose, the brains were rapidly frozen in isopentane and stored at −80° C. Twenty-micrometer cryostat sections comprising the hippocampal formation were Nissl stained with toluidine blue or NeuroTrace fluorescence.
The severity of neuronal damage in the hippocampal CA1 region after ischaemia was evaluated by the number of surviving neurons using Nissl staining. The mean number of morphologically intact neurons per 400 μm length was calculated in CA1 region for each group. Cell counting was performed in 3-5 serial sections per animal and 6 times 400 μm CA1 area per section using a light microscope equipped with a 20× objective. The data were statistically analysed by paired Student's t-test. Data were presented as mean±SEM.
Morphological intact hippocampal CA1 neurons were characterised by Nissl staining (toluidine blue and NeuroTrace) with the following criteria: clear shape of a neuronal perikarya, large nucleus with a positive labelled nucleolus, a small cytoplasm zone around the nucleus with positive Nissl staining, indicating the intact rough endoplasmic reticulum with ribosomes and therefore the intact protein synthesis machinery.

[4] = Experiment 1, 100 nM, during and post-hypoxia
[5] = Experiment 1, 100 nM, present pre-, during and post-hypoxia, control hypoxia 25.5 ± 6.4
[6] = 30 mg/kg, three injections, 10 min global ischaemia, 7 days survival

Structure (SMILES): C[C@]12CC[C@H](O)C[C@@H]1C[C@@H](O)[C@@H]1[C@@H]2CC[C@]2(C)C(=O)CC[C@@H]12 [7αOH-EPIA, 7α-Hydroxy-EPIA]
- effect on hypoxic damage in CA1 (in words) [1, 4]: significantly reduced
- % Damage in CA1 [1, 5]: 4.0 ± 2.9 %

Structure (SMILES): C[C@]12CC[C@H](O)CC1=C[C@H](O)[C@@H]1[C@@H]2CC[C@]2(C)C(=O)CC[C@@H]12 [7βOH-DHEA, 7β-hydroxy-DHEA]
- effect on neuronal damage (in words) ([1]; Experiment 3, 100 nM pre-, during and post-hypoxia): a large, highly significant, reduction in neuronal damage
- % Damage in CA1 ([1]; Experiment 3, 100 nM pre-, during and post-hypoxia, control hypoxia 29.0 ± 6.2): 4.1 ± 1.9 %

Structure (SMILES): C[C@]12CC[C@H](O)C[C@@H]1C[C@H](O)[C@@H]1[C@@H]2CC[C@]2(C)C(=O)CC[C@@H]12 [7βOH-EPIA, 7β-hydroxyepiandrosterone]
- Infarct volume ([2]; control 38.9): 14.1
- Infarct/risk zone (%) ([2]; control 46.3): 14.4+/−1.22% and 14.4%
- neuroprotective effect, t-test analysis (in words) ([3]; 0.1 mg/kg (p=0.01) and 0.3 mg/kg (p=0.0008)): highly significant neuroprotective effect
- neuroprotective effect on CA1 pyramidal cells compared to the sham operated group ([3]; 0.1 mg/kg i.v., three injections, 10 min global ischaemia, 7 days survival): 74.8%
- neuroprotective effect on CA1 pyramidal cells compared to the sham operated group ([3]; 0.3 mg/kg i.v., three injections, 10 min global ischaemia, 7 days survival): 83.9%
- neuroprotection of CA1 pyramidal cells (in words) ([3]; 1.0 mg/kg i.v., three injections): only a tendency to neuroprotection, but the effect was not significant
- behavioural abnormalities of the animals ([3]; injected i.v. prior, during and after ischaemia): never observed any behavioural abnormalities
- effect on hypoxic damage in CA1 (in words) [1, 4]: significantly reduced
- % Damage in CA1 [1, 5]: 9.0 ± 4.7 %
- neuroprotection against hypoxia (in words) ([1]; Experiment 2, 1 nM): activity was lost
- % Damage in CA1 ([1]; Experiment 2, 1 nM, control hypoxia 31.9 ± 4.7): 20.6 ± 7.2%
- neuroprotection against hypoxia (in words) ([1]; Experiment 2, 10 nM and 100 nM): significantly neuroprotective
- % Damage in CA1 ([1]; Experiment 2, 10 nM, control hypoxia 31.9 ± 4.7): 11.9 ± 4.7 %
- % Damage in CA1 ([1]; Experiment 2, 100 nM, control hypoxia 31.9 ± 4.7): 14.3 ± 5.0 %

Structure (SMILES): NS(=O)(=O)c1cccc2c1c([N+](=O)[O-])cc1nc(O)c(O)nc12 [NBQX, 2,3-dihydroxy-6-nitro-7-sulfamoyl-benzo(F)quinoxaline, reference compound]
- neuroprotection in CA1 pyramidal cells compared to the ischaemia group (in words) ([3]; 30 mg/kg, three injections): significant (p=0.03) neuroprotection
- neuroprotection compared to the ischaemia alone [3, 6]: 47.5%
- protective effect compared to the sham operated animals [3, 6]: 68.5%
